Reference: patent publication US6974870B2, “Substituted 3-amino-thieno [2,3-b]pyridine-2-carboxylic acid amide compounds and processes for preparing and their uses” (Boehringer Ingelheim Phamaceuticals, Inc., priority 2002, dated 2005)

Molecular target: T1, human IKKβ (Homo sapiens, UniProt O14920)
T1 construct: FLAG (N)
T1 sequence (O14920 1-756): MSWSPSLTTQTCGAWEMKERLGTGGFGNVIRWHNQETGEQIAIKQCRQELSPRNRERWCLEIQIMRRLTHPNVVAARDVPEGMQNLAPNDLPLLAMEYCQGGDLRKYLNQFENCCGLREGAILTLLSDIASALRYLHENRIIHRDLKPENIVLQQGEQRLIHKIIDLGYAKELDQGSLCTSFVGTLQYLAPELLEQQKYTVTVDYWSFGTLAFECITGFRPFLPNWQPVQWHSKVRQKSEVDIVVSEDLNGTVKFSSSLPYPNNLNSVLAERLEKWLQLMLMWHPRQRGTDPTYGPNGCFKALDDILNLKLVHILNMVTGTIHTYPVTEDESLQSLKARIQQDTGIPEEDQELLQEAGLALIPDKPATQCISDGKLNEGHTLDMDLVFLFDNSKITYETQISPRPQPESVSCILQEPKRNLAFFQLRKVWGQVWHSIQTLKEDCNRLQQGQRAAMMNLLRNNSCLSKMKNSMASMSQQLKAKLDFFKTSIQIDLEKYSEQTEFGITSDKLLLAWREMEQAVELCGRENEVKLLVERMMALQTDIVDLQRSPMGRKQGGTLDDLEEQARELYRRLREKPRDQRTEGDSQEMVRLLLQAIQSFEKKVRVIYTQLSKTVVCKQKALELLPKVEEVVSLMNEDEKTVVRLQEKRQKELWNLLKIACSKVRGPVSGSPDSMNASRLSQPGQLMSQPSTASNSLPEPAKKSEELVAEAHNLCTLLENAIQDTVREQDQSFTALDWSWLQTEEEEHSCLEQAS
Test: IKKβ kinase inhibition assay (phosphorylation of IκBα substrate, 33P-ATP)
Type: biochemical
Settings: flag-tagged human IKKβ 0.9 μg/ml, GST-IκBα (1-54) 53 μg/ml, 250 nM ATP, 1 hour at 25° C.
Protocol: (§1) The inhibition of IKKα and IKKβ by the compounds of the present invention was determined with the following assay that measures the phosphorylation of the IκBα substrate by the respective kinases. The enzymes used in the assay were N-terminally flag-tagged versions of the human IKKβ or IKKα and the substrate was a GST fusion protein with IκBα (amino acids 1-54).
(§2) The reaction mixtures (60 μl) contained 20 mM HEPES pH 7.5, 10 mM MgCl2, 2 mM MnCl2, 100 mM NaCl, 100 μM Na3VO4, 20 mM β-glycerophosphate, 1 mM DTT, 2% DMSO, 250 nM ATP, 0.4 nM [^33P]ATP (specific activity, 3000 Ci/mmol), IκBα substrate, IKK enzyme and test compound. The reaction mixtures contained either 3.6 μg/ml IKKα and 245 μg/ml IκBα or 0.9 μg/ml IKKβ and 53 μg/ml IκBα.
(§3) Reactions were initiated by adding a solution of IκBα substrate and ATP to polypropylene plates containing IKK enzyme that was pre-incubated for 5 minutes with test compound. Then the reaction mixtures were incubated for 1 hour at 25° C., placed on ice and quenched by the addition of 150 μl 10% trichloroacetic acid and 5% disodium pyrophosphate. After mixing, the entire contents of the quenched reaction mixtures were transferred to a pre-wetted Packard UniFilter filtration plate, aspirated and washed 6 times with 250 μl of ddH2O using the Packard Filtermate Harvester. Filtration plates were then air dried, supplemented with 40 μl of Microscint 20 scintillation fluid and the ^33P-labeled reaction products were quantified using the Packard TopCount scintillation counter.
(§4) Compounds were tested in three-fold serial dilutions and inhibitor concentrations to achieve 50% inhibition of enzyme activity (i.e., IC50) were derived from dose-reponse curves using SAS software (SAS Institute, Cary N.C.). A non-linear regression analysis based on the Hill equation was applied to the percent inhibition versus concentration data. In all cases, compound concentrations were verified by HPLC.

SMILES | IC50
CCCc1cc(N2CCC(NCC(O)Cc3cccc(C(N)=O)c3)CC2)nc2sc(C(N)=O)c(N)c12 (stereo not shown) [3-Amino-6-{4-[3-(3-carbamoyl-phenyl)-2-hydroxy-propylamino]-piperidin-1-yl}-4-propyl-thieno[2,3-b] pyridine-2-carboxylic acid amide] | < 1 µM
CCCc1cc(N2CCC(NCC(O)COc3cccc(OC)c3)CC2)nc2sc(C(N)=O)c(N)c12 (stereo not shown) [3-Amino-6-{4-[2-hydroxy-3-(3-methoxy-phenoxy)-propylamino]-piperidin-1-yl}-4-propyl-thieno[2,3-b] pyridine-2-carboxylic acid amide] | < 1 µM
CCCc1cc(N2CCC(NCC(O)COc3ccc4ccccc4c3)CC2)nc2sc(C(N)=O)c(N)c12 (stereo not shown) [3-Amino-6-{4-[2-hydroxy-3-(naphthalen-2-yloxy)-propylamino]-piperidin-1-yl}-4-propyl-thieno[2,3-b] pyridine-2-carboxylic acid amide] | < 1 µM
CCCc1cc(N2CCC(NCC(O)COCc3ccccc3)CC2)nc2sc(C(N)=O)c(N)c12 (stereo not shown) [3-Amino-6-[4-(3-benzyloxy-2-hydroxy-propylamino)-piperidin-1-yl]-4-propyl-thieno[2,3-b] pyridine-2-carboxylic acid amide] | < 1 µM
CCCc1cc(N2CCC(NCC(O)COc3ccc(C(F)(F)F)cc3)CC2)nc2sc(C(N)=O)c(N)c12 (stereo not shown) [3-Amino-6-{4-[2-hydroxy-3-(4-trifluoromethyl-phenoxy)-propylamino]-piperidin-1-yl}-4-propyl-thieno[2,3-b] pyridine-2-carboxylic acid amide] | < 1 µM
CCCc1cc(N2CCC(NCC(O)Cc3ccc(C(N)=O)cc3)CC2)nc2sc(C(N)=O)c(N)c12 (stereo not shown) [3-Amino-6-{4-[3-(4-carbamoyl-phenyl)-2-hydroxy-propylamino]-piperidin-1-yl}-4-propyl-thieno[2,3-b] pyridine-2-carboxylic acid amide] | < 1 µM
CCCc1cc(N2CCC(NCC(O)c3ccc(-c4cncnc4)cc3)CC2)nc2sc(C(N)=O)c(N)c12 (stereo not shown) [3-Amino-6-{4-[2-hydroxy-2-(4-pyrimidin-5-yl-phenyl)-ethylamino]-piperidin-1-yl}-4-propyl-thieno[2,3-b] pyridine-2-carboxylic acid amide] | < 1 µM
NC(=O)c1sc2nc(N3CCC(NCC(O)c4ccc(-c5ccccc5)cc4)CC3)cc(C(F)(F)F)c2c1N (stereo not shown) [3-Amino-6-[4-(2-biphenyl-4-yl-2-hydroxy-ethylamino)-piperidin-1-yl]-4-trifluoromethyl-thieno[2,3-b]pyridine-2-carboxylic acid amide] | < 1 µM
NC(=O)c1sc2nc(N3CCC(NCC(O)c4ccc(-c5cccnc5)cc4)CC3)cc(C(F)(F)F)c2c1N (stereo not shown) [3-Amino-6-{4-[2-hydroxy-2-(4-pyridin-3-yl-phenyl)-ethylamino]-piperidin-1-yl}-4-trifluoromethyl-thieno[2,3-b]pyridine-2-carboxylic acid amide] | < 1 µM
CC(C)(C)c1cc(N2CCC(N)CC2)nc2sc(C(N)=O)c(N)c12 [3-Amino-6-(4-amino-piperidin-1-yl)-4-tert-butyl-thieno[2,3-b] pyridine-2-carboxylic acid amide] | < 1 µM

Molecular target: T2, human IKKα (Homo sapiens, UniProt O15111)
T2 construct: FLAG (N)
T2 sequence (O15111 1-745): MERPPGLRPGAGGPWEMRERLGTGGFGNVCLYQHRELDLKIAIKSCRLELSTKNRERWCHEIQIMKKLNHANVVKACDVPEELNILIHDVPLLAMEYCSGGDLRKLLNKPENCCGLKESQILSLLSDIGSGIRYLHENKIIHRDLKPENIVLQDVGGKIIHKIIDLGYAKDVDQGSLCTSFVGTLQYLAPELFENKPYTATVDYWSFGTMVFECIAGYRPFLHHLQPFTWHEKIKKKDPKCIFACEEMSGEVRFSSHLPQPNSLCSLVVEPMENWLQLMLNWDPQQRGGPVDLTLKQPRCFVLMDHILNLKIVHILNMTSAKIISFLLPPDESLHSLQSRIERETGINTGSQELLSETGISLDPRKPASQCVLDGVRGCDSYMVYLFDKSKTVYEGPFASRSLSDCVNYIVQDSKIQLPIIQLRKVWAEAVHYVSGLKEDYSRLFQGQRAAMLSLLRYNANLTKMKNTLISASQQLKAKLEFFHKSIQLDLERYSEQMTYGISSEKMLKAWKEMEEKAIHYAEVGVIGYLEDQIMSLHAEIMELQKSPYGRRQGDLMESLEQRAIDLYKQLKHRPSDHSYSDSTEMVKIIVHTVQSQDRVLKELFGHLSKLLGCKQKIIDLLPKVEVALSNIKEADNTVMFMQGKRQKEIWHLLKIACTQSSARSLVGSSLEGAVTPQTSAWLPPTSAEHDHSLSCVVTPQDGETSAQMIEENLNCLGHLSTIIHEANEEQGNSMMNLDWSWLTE
Test: IKKα kinase inhibition assay (phosphorylation of IκBα substrate, 33P-ATP)
Type: biochemical
Settings: flag-tagged human IKKα 3.6 μg/ml, GST-IκBα (1-54) 245 μg/ml, 250 nM ATP, 1 hour at 25° C.
Protocol: as §1, §2, §3, §4

SMILES | IC50
CSc1cc(N2CCC(N)CC2)nc2sc(C(N)=O)c(N)c12 [3-Amino-6-(4-amino-piperidin-1-yl)-4-methylsulfanyl-thieno[2,3-b]pyridine-2-carboxylic acid amide] | ≤ 10 µM
CC(C)Oc1ccnc2sc(C(N)=O)c(N)c12 [3-Amino-4-isopropoxy-thieno[2,3-b]pyridine-2-carboxylic acid amide] | ≤ 10 µM
CCCc1cc(N2CCC(NCC(O)c3ccc(NS(C)(=O)=O)cc3)CC2)nc2sc(C(N)=O)c(N)c12 (stereo not shown) [3-Amino-6-{4-[2-hydroxy-2-(4-methanesulfonylamino-phenyl)-ethylamino]-piperidin-1-yl}-4-propyl-thieno[2,3-b] pyridine-2-carboxylic acid amide] | ≤ 10 µM
Cc1cc(/C=C/c2ccccc2)c2c(N)c(C(N)=O)sc2n1 [3-Amino-6-methyl-4-((E)-styryl)-thieno[2,3-b]pyridine-2-carboxylic acid amide] | ≤ 10 µM
CCCc1cc(N2CCC(NCC(O)c3ccc(C(=O)NCc4cccnc4)cc3)CC2)nc2sc(C(N)=O)c(N)c12 (stereo not shown) [3-Amino-6-[4-(2-hydroxy-2-{4-[(pyridin-3-ylmethyl)-carbamoyl]-phenyl}-ethylamino)-piperidin-1-yl]-4-propyl-thieno[2,3-b] pyridine-2-carboxylic acid amide] | ≤ 10 µM
CCCc1cc(N2CCN(C)CC2)nc2sc(C(N)=O)c(N)c12 [3-Amino-6-(4-methyl-piperazin-1-yl)-4-propyl-thieno[2,3-b] pyridine-2-carboxylic acid amide] | ≤ 10 µM
NC(=O)c1sc2nc(N3CCC(N)CC3)cc(/C=C/c3ccccc3)c2c1N [3-Amino-6-(4-amino-piperidin-1-yl)-4-((E)-styryl)-thieno[2,3-b]pyridine-2-carboxylic acid amide] | ≤ 10 µM
CCCc1cc(N2CCNCC2)nc2sc(C(N)=O)c(N)c12 [3-amino-6-piperazin-1-yl-4-propyl-thieno[2,3-b]pyridine-2-carboxylic acid amide] | ≤ 10 µM
Cc1cc(/C=C/c2ccc(Cl)cc2)c2c(N)c(C(N)=O)sc2n1 [3-Amino-4-[(E)-2-(4-chloro-phenyl)-vinyl]-6-methyl-thieno[2,3-b]pyridine-2-carboxylic acid amide] | ≤ 10 µM
NC(=O)c1sc2nc(N3CCC(NCC(O)c4ccc(F)c(F)c4)CC3)cc(C(F)(F)F)c2c1N (stereo not shown) [3-Amino-6-{4-[2-(3,4-difluoro-phenyl)-2-hydroxy-ethylamino]-piperidin-1-yl}-4-trifluoromethyl-thieno[2,3-b]pyridine-2-carboxylic acid amide] | ≤ 10 µM
Cc1cc(-c2ccco2)c2c(N)c(C(N)=O)sc2n1 [3-Amino-4-furan-2-yl-6-methyl-thieno[2,3-b]pyridine-2-carboxylic acid amide] | ≤ 10 µM
CCCc1cc(N2CCC(NCC(O)c3ccc(C(=O)NCc4cccc(C(N)=O)c4)cc3)CC2)nc2sc(C(N)=O)c(N)c12 (stereo not shown) [3-Amino-6-(4-{2-[4-(3-carbamoyl-benzylcarbamoyl)-phenyl]-2-hydroxy-ethylamino}-piperidin-1-yl)-4-propyl-thieno[2,3-b] pyridine-2-carboxylic acid amide] | ≤ 10 µM
